Data on 15 sequences can be found in patent publication US20260285924A1, “PEPTIDE THERAPEUTICS” (priority 2023, published 2026).

The subject of experiment [1] is A-to-I RNA editing reporter (ADAR) in A375. Briefly: A-to-I PepTile (REPTILE) screen: A-to-I editing of dsRNA hairpin reporter by NGS. In kind it is cell-based, human. The following applies: for % A-to-I editing (IFNα): IFNα 6000 U/ml for 48 hours; for % A-to-I editing (Basal): no treatment. An excerpt: (§1) FIGS. 12A-12D. A-to-I PepTile screen. (A) Composition of A-to-I PepTile linrary screen, and schematic description of the lentiviral expression vector. (B) Experimental workflow. A375 cells were transduced at low MOI, and then treated or not with IFNα for 48 hrs. RNA was extracted and Peptide_ADARreporter RNA species were amplified and sequenced by NGS. (C) Dot plot of A-to-I PepTile library effect on A-to-I editing with or without IFNα treatment. Red line is the mean A-to-I editing of all the 8088 peptides (>100 read counts) no treatment: 25.75% IFNα: 37.6%. (D) Dot plot of A-to-I PepTile library fitness effect upon IFNα for 48 hrs.
FIGS. 17A-17F show A-to-I RNA Editing PiTile (REPTILE) screen in A375. (A) A-to-I RNA Editing PiTile (REPTILE) library design consist of fragmentation of all known ADAR1, ADAR2 interactors and all human double stranded RNA-binding protein into 40 amino acid long peptide. This library was then cloned into a lentivirus vector that also encode a DNA-encoded RNA loop reporter (A-to-I Rep) that is edited by ADAR proteins in cells at the RNA level. When the construct is expressed, the RNA loop gets edited on a single Adenosine, while the 40-mer peptide get expressed at the protein level. Then we can measure the impact of the peptide expression on the editing rate of the RNA loop reporter by sequencing (NGS and Sanger). (B) Experimental workflow of REPTILE screen in A375 cell line. Cells were transduced with the REPTILE library, and then treated for 48 hours with IFNα. Following the treatment, RNA was harvested, converted into cDNA and amplicon library containing peptide Identity (barcode) linked to the RNA loop reporter were prepared for NGS. (C) Result of the A375 REPTILE screen in the no treatment condition. Each dot represents a unique peptide that is associated with an A-to-I editing rate that was measured on the RNA loop. (D) Result of the A375 REPTILE screen in the IFNα condition. Each dot represents a unique peptide that is associated with an A-to-I editing rate that was measured on the RNA loop. Red line represent the A-to-I editing mean, Dash blue line represent 2 times the standard deviation of the % A-to-I editing across all the datasets. This cutoff was used to defined peptides hits that modulate RNA A-to-I editing. (E) Peptide A-to-I Inhibitor Hits intersection between no treatment (% A-to-I editing<15%) and IFNα (% A-to-I editing<27%) conditions. (F) Peptide A-to-I Enhancers Hits intersection between no treatment (% A-to-I editing>36%) and IFNα (% A-to-I editing>47%) conditions.
Provided herein is a screening methodology to measure the effect of small peptide on A-to-I RNA editing in situ and screen thousands of peptides in a single experiment. First, a library of peptides with the potential of impairing A-to-I editing was designed and built. ADAR enzymes edit RNA only on double-stranded RNA structures and via ADAR's double stranded RNA-Binding Domain (dsRBD). […] The A-to-I PepTile library is composed of 19 Human proteins having dsRBD and 34 known protein-protein interactors of ADAR1/2. All these proteins were tiled into 40-mer peptides every 4 amino acids (FIG. 12A). To measure A-to-I editing, a biosensor consisting of a 71 bp dsRNA hairpin structure that gets A-to-I edited at a rate of 25% in A375 melanoma cells, and ~37% upon IFNα treatment was used. This A-to-I editing reporter is fused with DNA sequence encoding for a peptide from the A-to-I PepTile library. The A-to-I PepTile plasmid pool (10304 elements) was used to produced lentiviruses and transduced A375 cells at a low multiplicity of infection (MOI) (FIG. 12B). A part of the infected cells was treated with IFNα at 6000 U/ml for 48 hours, and then bulk RNA of the basal and treated condition was harvested. RNA was then retrotranscribed into cDNA and sequenced by Next-Generation Sequencing (NGS). […]

In another experiment the test system is A375 cells. Briefly: A-to-I PepTile screen: fitness effect upon IFNα (PepTile abundance untreated vs treated). In kind it is cell-based, human.
Source text: as §1
Provided herein is a screening methodology to measure the effect of small peptide on A-to-I RNA editing in situ and screen thousands of peptides in a single experiment. First, a library of peptides with the potential of impairing A-to-I editing was designed and built. ADAR enzymes edit RNA only on double-stranded RNA structures and via ADAR's double stranded RNA-Binding Domain (dsRBD). […] The A-to-I PepTile library is composed of 19 Human proteins having dsRBD and 34 known protein-protein interactors of ADAR1/2. All these proteins were tiled into 40-mer peptides every 4 amino acids (FIG. 12A). To measure A-to-I editing, a biosensor consisting of a 71 bp dsRNA hairpin structure that gets A-to-I edited at a rate of 25% in A375 melanoma cells, and ~37% upon IFNα treatment was used. This A-to-I editing reporter is fused with DNA sequence encoding for a peptide from the A-to-I PepTile library. The A-to-I PepTile plasmid pool (10304 elements) was used to produced lentiviruses and transduced A375 cells at a low multiplicity of infection (MOI) (FIG. 12B). A part of the infected cells was treated with IFNα at 6000 U/ml for 48 hours, and then bulk RNA of the basal and treated condition was harvested. RNA was then retrotranscribed into cDNA and sequenced by Next-Generation Sequencing (NGS). With the sequencing data, the A-to-I editing percentage of the RNA reporter for each PepTile is calculated since both elements are encoded on the same transcript. Moreover, with this screen one can also measure the abundance of the PepTiles between the untreated and treated conditions and determine Fitness score associated to every PepTile. To ensure a robust and more accurate A-to-I editing % estimation a cut-off of 100 read counts was set for each PepTile. […] SEQ ID NOs: 2125-2147 are A-to-I peptide inhibitors and SEQ ID NOs: 2148-2210 are A-to-I activators. In addition, 117 PepTiles were identified that either synergize (SEQ ID NOs: 2211-2243) or protect (SEQ ID NOs: 2244-2327) to IFNα-induced cell death (FIG. 12D and Table 5). These PepTiles are potential new therapeutic agents that can modulate the Interferon pathway. They may be beneficial in treating inflammatory conditions and may also enhance the effectiveness of cancer immunotherapy through synergistic effects.

The mark [2] stands for this setting: A375, PepTile abundance upon IFNα treatment, negative = synthetic lethal, positive = protector.
Setting [3] is: IFNα 6000 U/ml for 48 hours vs untreated.

Regarding “MSGTSYSGYEAAVYSAASSYYQQQQQQQKQAAAAAAAAAAT [ZFR_66]”, in experiment [1], the “% A-to-I editing (IFNα)” value amounted to 49.01% and the “% A-to-I editing (Basal)” value is 40.81%. The “Fitness Score IFNα” value in the experiment on A375 cells (setting [2]) is given as 2.04. Moreover, the “Fitness Score IFNα” value in the experiment with A375 cells (setting [3]) is 2.04.
As to “MSILARLDMQRGVHGRLMDNSTSVREAAVELLGRFVLCRPQ [NIPBL_452]”, in experiment [1], the “% A-to-I editing (IFNα)” value is listed as 50.76% and the “% A-to-I editing (Basal)” value is 38.35%. Further, in the experiment on A375 cells (setting [2]), the “Fitness Score IFNα” value turned out to be 2.31. Besides, the “Fitness Score IFNα” value in the experiment with A375 cells (setting [3]) is reported as 2.31.
For “MSKVTRAQIEDTLRRDHQLREAPDTAEKAKSHLEVPLEENV [CCDC124_24]”, in experiment [1], the “% A-to-I editing (IFNα)” value turned out to be 13.63% and the “% A-to-I editing (Basal)” value was found to be 12.50%. For the same sequence, in the experiment with A375 cells (setting [3]), the “Fitness Score IFNα” value was -1.31.
For the sequence “MSLLTGLSDSQVRAFRHTSTLAAMKLMTALVNVALNLSIHQ [STAG1_52]”, in experiment [1], the “% A-to-I editing (IFNα)” value is given as 58.66% and the “% A-to-I editing (Basal)” value is reported as 46.34%. Moreover, in the experiment on A375 cells (setting [3]), the “Fitness Score IFNα” value was -0.26.
Regarding “MSQHRKKEADSVYGEWVPVEKNGEENKDDDNVFSSNLPSEP [SON_53]”, in experiment [1], the “% A-to-I editing (IFNα)” value is 25.27% and the “% A-to-I editing (Basal)” value came to 14.38%. The “Fitness Score IFNα” value in the experiment with A375 cells (setting [3]) stood at 1.03.
On the same counts, the results for “MSQVRAFRHTSTLAAMKLMTALVNVALNLSIHQDNTQRQYE [STAG1_54]” are 54.81%, 43.52% and 0.28.
On the same counts, the results for “MVEKAVSSAAGPLGPGDAVRRVLECVATGTLLTDGPGLQDP [ZFR2_205]” are 54.50%, 45.00% and 0.12.
Regarding “MVGEYSNLEVNASWTKERWNQEFTKHQVLIMTCYVALNVLK [DICER1_31]”, in experiment [1], the “% A-to-I editing (IFNα)” value is 48.57% and the “% A-to-I editing (Basal)” value is reported as 37.36%. Moreover, in the experiment on A375 cells (setting [3]), the “Fitness Score IFNα” value was 0.94.
For the sequence “MVISTFKKRAVEITGAGPGASSVCNSAPGSGPSSPNSSHST [HDAC5_73]”, in experiment [1], the “% A-to-I editing (IFNα)” value is reported as 63.84% and the “% A-to-I editing (Basal)” value stood at 49.71%. Further, the “Fitness Score IFNα” value with A375 cells (setting [3]) worked out at 0.74.
On the same counts, the results for “MVMNLLESAGFSRSNPYYIVKQGKINQMATAPDSQRLKLLR [SMC3_31]” are 54.66%, 41.67% and 1.72.
As for “MVSSAAGPLGPGDAVRRVLECVATGTLLTDGPGLQDPCERD [ZFR2_206]”, in experiment [1], the “% A-to-I editing (IFNα)” value was 55.48% and the “% A-to-I editing (Basal)” value was found to be 44.05%. Also, the “Fitness Score IFNα” value in the experiment with A375 cells (setting [3]) is listed as 0.81.
As for “MVVLLCRQPCASQSSLKDINWDSSQWQPLIQDRCFLSWLVK [UPF1_52]”, in experiment [1], the “% A-to-I editing (IFNα)” value turned out to be 47.63% and the “% A-to-I editing (Basal)” value was found to be 50.56%. In the experiment on A375 cells (setting [3]), the “Fitness Score IFNα” value is on record as -0.80.
Turning to “MVYQAPLSLATVPHQALGRTQSSPAAPGGMKSPPDQPVKHL [HDAC5_161]”, in experiment [1], the “% A-to-I editing (IFNα)” value was 48.17% and the “% A-to-I editing (Basal)” value was 43.88%. Besides, the “Fitness Score IFNα” value in the experiment on A375 cells (setting [3]) was -0.12.
For the sequence “MWDSIIQQATKNVDILKDPETVKQLGSILKTNVRACKAVGH [XPO1_167]”, in experiment [1], the “% A-to-I editing (IFNα)” value was 25.96% and the “% A-to-I editing (Basal)” value came to 11.93%. Also, in the experiment with A375 cells (setting [3]), the “Fitness Score IFNα” value is reported as 1.42.
As for “MYSGYEAAVYSAASSYYQQQQQQQKQAAAAAAAAAATAAWT [ZFR_67]”, the “% A-to-I editing (IFNα)” value in experiment [1] was 47.21%. For the same sequence, the “% A-to-I editing (Basal)” value in experiment [1] amounted to 41.43%. For the same sequence, the “Fitness Score IFNα” value in the experiment with A375 cells (setting [2]) and in the experiment with A375 cells (setting [3]) was 2.43 throughout.
